From patent US11654198B2, “Application of combination of polyethylene glycol and local anesthetic in non-narcotic analgesia” (JENKEM TECHNOLOGY CO., LTD. (TIANJIN), priority 2016, dated 2023)

How the values were obtained:
SD rats [1] = experiment: Hot plate paw withdrawal time, rat sciatica model, intervertebral disc compression (SNL) (Example 32); type: in vivo
Text: Intervertebral disc compression (SNL): This model is a pathological form that simulates clinical disc herniation. The specific method is to remove the autogenous caudal intervertebral disc tissue (annulus fibrosus and nucleus pulposus) form the rats and place the caudal intervertebral disc tissue between the proximal nerve root of the L5 dorsal root ganglion and the lower vertebral body to directly compress the L5 nerve root, wherein damage to the L5 nerve root or dorsal root ganglion should be avoided during the operation. 3 to 15 days after the model is successful, rats develop significant hyperalgesia, so the administration time we chose is between 3 days and 15 days.
Qualified rats are randomly divided into 5 groups, 6 rats in each group, which are labeled as groups G1, G2, G3, G4 and G5, respectively. Administration by intramuscular injection around sciatic nerve is adopted, and the grouping information of the experimental animals is shown in Table 11.
(§1) Sensory block (hot plate paw withdrawal time): The sensory block of the rat is examined by a hot plate method, and the hot plate is heated to (56±1)° C., and one of the hind paws of the rat is placed on the hot plate, the other hind paw is in the laboratory room temperature condition, and the tested paw withdrawal time is observed and recorded. The average value of two to three times measured is recorded as a pain threshold. In order to avoid the damage of the experimental animal body, if the rat has no paw withdrawal in the hot plate experiment for more than 15 s, the paws should be removed from the hot plate, and the experimental result is recorded as 15 s. The time point for determining the withdrawal time of the hot plate is before administration, and 0.5 h, 1 h, 2 h, 4 h, 6 h, 8 h, 12 h, and 24 h after administration.

SD rats [2] = experiment: Sensory block, hot plate paw withdrawal time, non-anesthetic analgesic effect of PEG-bupivacaine conjugate (Example 30); type: in vivo, rat; details: for hot plate paw withdrawal time: conjugate 10/11/12 at 32/24/48 mg/kg (as bupivacaine)
Protocol: Male Sprague-Dawley rats are used in the study, about 230-250 g when accepted, and acclimated for at least 7 days prior to the experiment. Two rats are raised in each cage and fed freely with feed and water. The environmental conditions of the breeding room are 23±2° C., and the relative humidity is 40% to 70%, alternating 12 hours of light and dark. […] The qualified rats are randomly divided into 4 groups, 4 rats in each group, which are labeled as groups G1, G2, G3, and G4, respectively. Administration by direct injection in the sciatic nerve is adopted, and with the rat's back facing up, the drug is injected around the right sciatic nerve trunk between the right hip and the right thigh.
as §1, with “the hot plate. The other hind” for “the hot plate, the other hind”, “s, the rat should be” for “s, the paws should be”, “determining the paw withdrawal time” for “determining the withdrawal time”, “8 h, 10 h, 12 h,” for “8 h, 12 h,”

SD rats [3] = experiment: Hot plate paw withdrawal time, rat plantar incision model (Example 31); type: in vivo
Protocol: (§2) After SD rats inhale anesthesia (isoflurane), an incision of about 1 cm in length from the proximal end of the pelma to the toe is made: after the skin and fascia are cut, the plantar muscle is picked up with an ophthalmic forceps and cut longitudinally (maintaining the starting and ending point and attachment of muscles); pressing is carried out for hemostasis, physiological saline and test drugs are injected into the muscles of animal's legs, and then the pain threshold detection is performed by the hot plate method. Within 24 hours after the model is successful, the rats develop significant hyperalgesia. Qualified rats are randomly divided into 5 groups, 6 rats in each group, which are labeled as groups G1, G2, G3, G4 and G5, respectively. The plantar subcutaneous injection method for administration is used, and the grouping information of the experimental animals is shown in Table 8.
as §1, with “determining the paw withdrawal time” for “determining the withdrawal time”

SD rats [4] = experiment: Motor block four-level score, rat plantar incision model (Example 31); type: in vivo; parameters: key to motor function score: 1 = normal paw movement to 4 = complete loss of movement with gait defect; details: for motor function score: bupivacaine 8, conjugate 10/11/12 32/24/48 mg/kg
Protocol: as §2
Motor block (four-level score): The exercise condition of each group of rats is evaluated by the motor block four-level scoring method. The scoring criteria are: paws can be dorsiflexed, stretched, valgus and other normal exercises, scored by 1 point; paws can be dorsiflexed, bendable or after the adduction, although the paws can be stretched, the stretching ability is weakened, scored by 2 points; the paws can perform dorsiflexion, but no longer has the ability to stretch, scored by 3 points; the paws completely lose the ability of dorsiflexion, curling and stretching, and the rats produce a gait defect, scored by 4 points. The time point for measuring the motor block score is before administration, and 0.5 h, 1 h, 2 h, 4 h, 6 h, 8 h, 12 h, and 24 h after administration.

[5] = 0 h (after surgery, before administration), bupivacaine 8, conjugate 10/11/12 32/24/48 mg/kg
[6] = 0.5 h after intramuscular injection around sciatic nerve, bupivacaine 8, conjugate 10/11/12 32/24/48 mg/kg
[7] = 1 h after intramuscular injection around sciatic nerve, bupivacaine 8, conjugate 10/11/12 32/24/48 mg/kg
[8] = 2 h after intramuscular injection around sciatic nerve, bupivacaine 8, conjugate 10/11/12 32/24/48 mg/kg
[9] = 4 h after intramuscular injection around sciatic nerve, bupivacaine 8, conjugate 10/11/12 32/24/48 mg/kg
[10] = 6 h after intramuscular injection around sciatic nerve, bupivacaine 8, conjugate 10/11/12 32/24/48 mg/kg
[11] = 8 h after intramuscular injection around sciatic nerve, bupivacaine 8, conjugate 10/11/12 32/24/48 mg/kg
[12] = 12 h after intramuscular injection around sciatic nerve, bupivacaine 8, conjugate 10/11/12 32/24/48 mg/kg
[13] = 24 h after intramuscular injection around sciatic nerve, bupivacaine 8, conjugate 10/11/12 32/24/48 mg/kg
[14] = before surgery, bupivacaine 8, conjugate 10/11/12 32/24/48 mg/kg (as bupivacaine)
[15] = conjugate 10/11/12 at 32/24/48 mg/kg
[16] = 0.5 h after plantar subcutaneous injection, bupivacaine 8, conjugate 10/11/12 32/24/48 mg/kg
[17] = 1 h after plantar subcutaneous injection, bupivacaine 8, conjugate 10/11/12 32/24/48 mg/kg
[18] = 2 h after plantar subcutaneous injection, bupivacaine 8, conjugate 10/11/12 32/24/48 mg/kg
[19] = 4 h after plantar subcutaneous injection, bupivacaine 8, conjugate 10/11/12 32/24/48 mg/kg
[20] = 6 h after plantar subcutaneous injection, bupivacaine 8, conjugate 10/11/12 32/24/48 mg/kg
[21] = 8 h after plantar subcutaneous injection, bupivacaine 8, conjugate 10/11/12 32/24/48 mg/kg
[22] = 12 h after plantar subcutaneous injection, bupivacaine 8, conjugate 10/11/12 32/24/48 mg/kg
[23] = 24 h after plantar subcutaneous injection, bupivacaine 8, conjugate 10/11/12 32/24/48 mg/kg
[24] = base value before surgery, bupivacaine 8, conjugate 10/11/12 32/24/48 mg/kg (as bupivacaine)

8-Arm-PEG-Bupivacaine, 20K [bupivacaine conjugate 10]
hot plate paw withdrawal time (SD rats [1]; [5]): 2.41 s | hot plate paw withdrawal time (SD rats [1]; [6]): 6.52 s | hot plate paw withdrawal time (SD rats [1]; [7]): 10.12 s | hot plate paw withdrawal time (SD rats [1]; [8]): 11.43 s | hot plate paw withdrawal time (SD rats [1]; [9]): 9.83 s | hot plate paw withdrawal time (SD rats [1]; [10]): 8.10 s | hot plate paw withdrawal time (SD rats [1]; [11]): 6.91 s | hot plate paw withdrawal time (SD rats [1]; [12]): 1.96 s | hot plate paw withdrawal time (SD rats [1]; [13]): 2.18 s | hot plate paw withdrawal time (SD rats [1]; [14]): 4.98 s | time the analgesic effect can reach (SD rats [1]; [15]): 8 h | hot plate paw withdrawal time (SD rats [2]; 0.5 h after direct injection around sciatic nerve): 11.85 s | hot plate paw withdrawal time (SD rats [2]; 2 h after direct injection around sciatic nerve): 8.91 s | hot plate paw withdrawal time (SD rats [2]; 4 h after direct injection around sciatic nerve): 10.74 s | hot plate paw withdrawal time (SD rats [2]; 6 h after direct injection around sciatic nerve): 11.92 s | hot plate paw withdrawal time (SD rats [2]; 8 h after direct injection around sciatic nerve): 8.49 s | hot plate paw withdrawal time (SD rats [2]; 10 h after direct injection around sciatic nerve): 6.64 s | hot plate paw withdrawal time (SD rats [2]; 12 h after direct injection around sciatic nerve): 3.82 s | hot plate paw withdrawal time (SD rats [2]; 24 h after direct injection around sciatic nerve): 3.81 s | time the analgesic effect could reach (SD rats [2]; conjugate 10 at 32 mg/kg, conjugate 11 at 24 mg/kg): 8 h | hot plate paw withdrawal time (SD rats [2]; l h after direct injection around sciatic nerve): 11.98 s | hot plate paw withdrawal time (SD rats [3]; [5]): 1.41 s | hot plate paw withdrawal time (SD rats [3]; [16]): 6.52 s | hot plate paw withdrawal time (SD rats [3]; [17]): 7.91 s | hot plate paw withdrawal time (SD rats [3]; [18]): 6.21 s | hot plate paw withdrawal time (SD rats [3]; [19]): 6.79 s | hot plate paw withdrawal time (SD rats [3]; [20]): 7.42 s | hot plate paw withdrawal time (SD rats [3]; [21]): 7.43 s | hot plate paw withdrawal time (SD rats [3]; [22]): 2.10 s | hot plate paw withdrawal time (SD rats [3]; [23]): 1.32 s | hot plate paw withdrawal time (SD rats [3]; [24]): 5.20 s | time the analgesic effect can reach (SD rats [3]; [15]): 8 h | motor function score (SD rats [4]; 0 h (before administration)): 1 ± 0 | motor function score (SD rats [4]; 0.5 h): 1 ± 0 | motor function score (SD rats [4]; 1 h): 1.75 ± 0.5 | motor function score (SD rats [4]; 2 h): 1.75 ± 0.5 | motor function score (SD rats [4]; 4 h): 1.75 ± 0.5 | motor function score (SD rats [4]; 6 h): 1.75 ± 0.5 | motor function score (SD rats [4]; 8 h): 1.75 ± 0.5 | motor function score (SD rats [4]; 12 h): 1 ± 0 | motor function score (SD rats [4]; 24 h): 1 ± 0 | effect on motor function of SD rats (SD rats [4]; [15]): does not affect the motor function

CCCCN1CCCCC1C(=O)Nc1c(C)cccc1C (centres unmarked) [bupivacaine]
hot plate paw withdrawal time (SD rats [1]; [5]): 2.28 s | hot plate paw withdrawal time (SD rats [1]; [6]): 7.39 s | hot plate paw withdrawal time (SD rats [1]; [7]): 9.22 s | hot plate paw withdrawal time (SD rats [1]; [8]): 2.81 s | hot plate paw withdrawal time (SD rats [1]; [9]): 1.89 s | hot plate paw withdrawal time (SD rats [1]; [10]): 1.78 s | hot plate paw withdrawal time (SD rats [1]; [11]): 1.95 s | hot plate paw withdrawal time (SD rats [1]; [12]): 2.43 s | hot plate paw withdrawal time (SD rats [1]; [13]): 1.72 s | hot plate paw withdrawal time (SD rats [1]; [14]): 5.40 s | hot plate paw withdrawal time (SD rats [3]; [5]): 1.02 s | hot plate paw withdrawal time (SD rats [3]; [16]): 7.21 s | hot plate paw withdrawal time (SD rats [3]; [17]): 6.91 s | hot plate paw withdrawal time (SD rats [3]; [18]): 1.30 s | hot plate paw withdrawal time (SD rats [3]; [19]): 1.51 s | hot plate paw withdrawal time (SD rats [3]; [20]): 1.32 s | hot plate paw withdrawal time (SD rats [3]; [21]): 2.41 s | hot plate paw withdrawal time (SD rats [3]; [22]): 1.41 s | hot plate paw withdrawal time (SD rats [3]; [23]): 1.45 s | hot plate paw withdrawal time (SD rats [3]; [24]): 4.70 s | motor function score (SD rats [4]; 0 h (before administration)): 1 ± 0 | motor function score (SD rats [4]; 0.5 h): 1 ± 0 | motor function score (SD rats [4]; 1 h): 1.75 ± 0.5 | motor function score (SD rats [4]; 2 h): 1.75 ± 0.5 | motor function score (SD rats [4]; 4 h): 1.75 ± 0.5 | motor function score (SD rats [4]; 6 h): 1.75 ± 0.5 | motor function score (SD rats [4]; 8 h): 1.75 ± 0.5 | motor function score (SD rats [4]; 12 h): 1 ± 0 | motor function score (SD rats [4]; 24 h): 1 ± 0
